Measurements as given in patent publication US9770469B2, “Methods of reprogramming renal cells” (Tel HaShomer Medical Research Infrastructure and Services …, priority 2009, dated 2017).

Assays:
human fetal kidney cells = test: qRT-PCR gene expression after TSA/AzaC or VPA treatment; type: cell-based
Description: Tissue Samples: human tissues samples were collected according to the Helsinki requirements. Human fetal kidney cells (HFK) were collected from elective abortions at fetal gestational age ranged from 15 to 19 weeks. Normal human adult kidney cell (HAK) samples were retrieved from borders of RCC tumors from partial nephrectomy patients. Establishment of Primary Cultures from Human Kidney Tissues: Collected tissues were minced in HBSS, soaked in IMDM Medium (Invitrogen) supplemented with 0.1% collagenase II (Invitrogen). The digested tissue was then gradually forced through a 100 μm, 70 μm and 50 μm cell strainer to achieve a single cell suspension, and cultured in growth medium supplemented with FBS 10%, L-Glutamin 1%, Pen-Strep 1% and growth factors: 50 ng/ml of bFGF, 50 ng/ml of EGF and 5 ng/ml of SCF (R&D systems). Cell Treatment: […] Otherwise, cells were treated for 24 hours with growth medium supplemented with the combination of 75 μM TSA (Sigma) and 250 μM 5-AZA (Sigma) or with 100% Ethanol and Acetic Acid (Acetic Acid: H2O 1:1) for control sample. […] 24 hours prior to harvesting VPA at a concentration of 4 mM was added to the cell culture. Quantitative Reverse Transcription-PCR: Total RNA from kidney tissue cultured cells was isolated using the TRIZOL reagent (Invitrogen) according to the manufacturer's protocols. cDNA synthesis was carried out using Verso kit (Thermo scientific) with Random primers. Quantitative RT PCR was performed using an ABI7900HT sequence detection system (Perkin-Elmer/Applied Biosystems) in the presence of SYBR green (SYBR green PCR kit; Qiagen). Each analysis reaction was performed in duplicates or triplicates. GapDH was used as an endogenous control throughout all experimental analyses. Analysis was performed using the −ΔΔCt method, which determines fold changes in gene expression relative to a comparator sample.

adult kidney cells [1] = test: Chromatin immunoprecipitation (ChIP) of Six2 and Wt1 promoters; type: cell-based, human; details: VPA 4 mM
Description: Chromatin Immunoprecipitation Assay (ChIP): 10×10^6 cells adult kidney cells were grown. Untreated cells (control) or cells treated with VPA (4 mM) were cross-linked with 1% formaldehayde for 10 min at RT in culture medium. The cells were washed and harvested in cold phosphate-buffered saline (PBS) containing protease inhibitors (Complete mini, Roche Applied Science) and Pepstatin (Sigma). The cells were then washed with Buffer B (20 mM Hepes pH 7.6, 0.25% Triton-x, 10 mM EDTA, 0.5 mM EGTA) and Buffer C (50 mM Hepes pH 7.6, 150 mM NaCl, 1 mM EDTA, 0.5 mM EGTA) were resuspended in 300 μl of SDS lysis buffer [1% SDS, 10 mM EDTA and 50 mM Tris-HCl (pH 8.1)], and incubated on ice for 10 minutes. Lysates were sonicated with 8×10 second bursts and debris were removed by centrifugation for 10 minutes at 1000 g, at 4° C. Supernatants were diluted 10-fold in ChIP dilution buffer [0.01% SDS, 1.1% Triton X-100, 1.2 mM EDTA, 16.7 mM Tris-HCl (pH 8.1) and 167 mM NaCl] and pre-cleared by incubating with 40 μl of protein A+salmon sperm beads (Upstate Biotechnology) for 30 minutes at 4° C. Beads were pelleted for 1 minute at 1000 g at 4° C. A total of 10 μl of the supernatant was saved as input, and the rest was divided into equal aliquots and incubated by rocking with either control Ab (IgG) or with of specific antibodies; Trimethyl-Histon 3K27 antibody (Upstate Biotechnology), anti acetylatedhistone H4 (Upstate Biotechnology) over night at 4° C. A total of 60 μl of protein A+salmon sperm beads was added, and the samples were rocked for 2 hours at 4° C. The complexes on the beads were washed for 5 minutes at 4° C. with the following buffers: low salt [0.1% SDS, 1% Triton X-100, 2 mM EDTA, 20 mM Tris-HCl (pH 8.1) and 150 mM NaCl], high salt [0.1% SDS, 1% Triton X-100, 2 mM EDTA, 20 mM Tris-HCl (pH 8.1), 500 mM NaCl], LiCl wash [0.25 M LiCl, 1% Nonidet P-40, 1% deoxycholate, 1 mM EDTA and 10 mM Tris-HCl (pH 8.1)], and twice with TE [10 mM Tris-HCl and 1 mM EDTA (pH 8.0)]. Immune complexes were eluted twice with 200 μl of elution buffer [1% SDS and 0.1 M NaHCO3]for 15 minutes at room temperature. The samples were de-crosslinked by adding 16 μl of 5 M NaCl, 8 μl of 0.5 M EDTA (pH 6.5) and 16 μl of 1M Tris-HCl (pH 8.1) and incubated O.N at 65° C. Proteinase K (10 mg/ml) and the samples were incubated for additional 2 hours at 55° C. Immunoprecipitated DNA was recovered by phenol/chloroform extraction and ethanol precipitation and was analyzed by quantitative RT PCR.

human adult kidney cells = test: qRT-PCR gene expression after TSA/AzaC or VPA treatment; type: cell-based; details: HAK cells, 24 h VPA, particularly in VPA-2 mM
Oct4 OE HAK cells = test: qRT-PCR of Oct4 over-expressing HAK cells with or without VPA; type: cell-based, human
adult kidney cells [2] = test: Methylation immunoprecipitation (MeDIP) of Six2 and Wt1 promoters; type: cell-based, human
Description: […] (MeDIP): 10 μg of sonicated genomic DNA (100-400 bp in length) was denatured, incubated 0/N at 4° C. with […] of anti-methyl cytosine antibody (Diagenode, Belgium), and subsequently with 60 μl of protein A fast flow beads (Upstate Biotechnologies) for 2 hours at 4° C. The beads were washed and incubated with digestion buffer (50 mM Tris-HCl pH 8.0, 10 mM EDTA, 0.5% SDS) and proteinase K for 3 hours and the DNA extracted by phenol-chloroform and EtOH precipitation. The samples were tested by quantitative RT PCR with the indicated primers at table 2. The sonicated DNA served as input.

[3] = HFK cells, 24 h, TSA/AzaC or VPA
[4] = HFK cells, 24 h, TSA/AzaC or VPA (lesser extent than Six2)

**Q.** How did the “Klf4 mRNA increase” value (human fetal kidney cells; HFK cells, 24 h, 4 mM VPA) turn out when CCCC(CCC)C(=O)O [VPA, valproic acid] was run?
**A.** two-five

**Q.** And the “Nanog mRNA increase” value (human fetal kidney cells; HFK cells, 24 h, 4 mM VPA)?
**A.** two-five

**Q.** What about the “Oct4 mRNA increase” value (human fetal kidney cells; HFK cells, 24 h, 4 mM VPA) of the same compound?
**A.** two-five

**Q.** What about the “E-cadherin mRNA expression change” value (human fetal kidney cells; [3]) of the same compound?
**A.** significantly elevated

**Q.** And the “Pax2 mRNA expression change” value (human fetal kidney cells; [3])?
**A.** mild elevation

**Q.** And the “Wt1 mRNA expression change” value (human fetal kidney cells; [3])?
**A.** reduction

**Q.** What about the “Osr1 mRNA expression change” value (human fetal kidney cells; [4]) of the same compound?
**A.** dose-dependent activation

**Q.** What about the “Sall1 mRNA expression change” value (human fetal kidney cells; [4]) of the same compound?
**A.** dose-dependent activation

**Q.** And the “Six2 mRNA induction” value (human fetal kidney cells; HFK cells, 24 h VPA, dose-dependent)?
**A.** four-fold

**Q.** And the “Wnt4 mRNA levels” value (human fetal kidney cells; VPA-treated fetal kidney cells)?
**A.** strong up-regulation

**Q.** What about the “β-catenin mRNA levels” value (human fetal kidney cells; VPA-treated fetal kidney cells) of the same compound?
**A.** elevation

**Q.** What about the “H3K4me at Six2 promoter regions” value (adult kidney cells [1]) of the same compound?
**A.** significant increases

**Q.** And the “H3K4me elevation in the Wt1 promoter region” value (adult kidney cells [1])?
**A.** not

**Q.** What about the “H3K27me in the Wt1 promoter region” value (adult kidney cells [1]) of the same compound?
**A.** modest elevation

**Q.** And the “H3K27me levels at Six2 promoter regions” value (adult kidney cells [1])?
**A.** no change

**Q.** And the “acetylated histones H4 at Six2 promoter regions (-92, -412, -541, -731, -955, -1157)” value (adult kidney cells [1])?
**A.** significantly increased

**Q.** What about the “Oct4 mRNA expression change” value (human adult kidney cells) of the same compound?
**A.** significantly up-regulated

**Q.** What about the “Six2 expression, VPA exposure combined with Oct4 OE” value (Oct4 OE HAK cells) of the same compound?
**A.** higher Six2 expression pattern compared to each of the single manipulations

**Q.** What about the “DNA methylation on Wt1 promoter” value (adult kidney cells [2]; VPA treatment) of the same compound?
**A.** minimally effected

**Q.** And the “DNA methylation at the Six2 promoter” value (adult kidney cells [2]; with or without VPA)?
**A.** DNA hypomethylation at the Six2 promoter loci regardless of VPA treatment
